# From BindingDB's records for doi:10.7270/Q2V986KM (Burnham Center For Chemical Genomics, 2011)
# Biological target: T1, Carboxy-terminal domain RNA polymerase II polypeptide A small phosphatase 1 (Homo sapiens, UniProt Q9GZU7)
# T1 sequence (Q9GZU7 whole entry): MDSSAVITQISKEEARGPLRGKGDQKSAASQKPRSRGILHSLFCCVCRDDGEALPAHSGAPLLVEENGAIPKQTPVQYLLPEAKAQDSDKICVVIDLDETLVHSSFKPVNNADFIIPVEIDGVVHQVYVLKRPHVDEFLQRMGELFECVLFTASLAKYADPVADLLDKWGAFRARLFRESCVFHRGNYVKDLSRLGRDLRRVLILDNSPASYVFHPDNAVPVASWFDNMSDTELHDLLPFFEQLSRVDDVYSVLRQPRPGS
# Assay: Ultra-high-throughput screening actives, CTDSP1 enzyme inhibition, concentration-response testing, biochemical, absorbance detection (AID 540297)
row,SMILES,IC50
1,COc1ccccc1NC(=O)CN1C(=O)/C(=N\NC(=O)c2ccccc2O)c2ccccc21 [2-hydroxy-N-[(Z)-[1-[2-(2-methoxyanilino)-2-oxoethyl]-2-oxo-3-indolylidene]amino]benzamide],2.74 µM
2,"Cc1cc(=O)n(-c2ccc(Cl)c(C(=O)O)c2)[nH]1 [2-Chloro-5-(3-methyl-5-oxo-4,5-dihydro-pyrazol-1-yl)-benzoic acid]",8.96 µM
3,O=C1C=C(O)/C(=C/NN2C(=O)C3C(C2=O)C2C=CC3C23CC3)C=C1[N+](=O)[O-] (configuration not stated) [MLS000705206],4.9 µM
4,C[N+](C)(C)CCNC(=O)C1=C/C(=C\N=O)N(Cc2ccccc2)C=C1,7.56 µM
5,"CCOc1cc(CN=Nc2nc(O)c(CC(=O)O)s2)ccc1OCc1ccc(Cl)cc1Cl [2-[2-[(N''E)-N''-[4-(2,4-dichlorobenzyl)oxy-3-ethoxy-benzylidene]hydrazino]-4-keto-2-thiazolin-5-yl]acetic acid]",2.32 µM
6,O=C1C=CC(/C=C/c2nc(O)c([N+](=O)[O-])c(=O)[nH]2)C=C1O (configuration not stated) [SMR000524347],36.1 µM
7,O=c1cc(O)[n+]2nc(-c3ccc([N+](=O)[O-])cc3)sc2[n-]1 [SMR000175134],5.67 µM
8,"O=C1CC(=O)c2cccc(O)c2C1=O [4,8-dihydroxynaphthalene-1,2-dione]",44.5 µM
9,"Cc1ccc(-n2[nH]c(C)c(CN=Nc3ccc([N+](=O)[O-])cc3[N+](=O)[O-])c2=O)cc1C [(4E)-2-(3,4-dimethylphenyl)-4-[[(2,4-dinitrophenyl)hydrazo]methylidene]-5-methyl-3-pyrazolone]",3.32 µM
10,"C=CC1=C(C(=O)O)N2C(=O)[C@@H](NC(=O)C(N=O)c3csc(N)n3)[C@H]2SC1 (stereo partly drawn) [(6R,7R)-7-[[2-(2-azanyl-1,3-thiazol-4-yl)-2-hydroxyimino-ethanoyl]amino]-3-ethenyl-8-oxidanylidene-5-thia-1-azabicyclo[4.2.0]oct-2-ene-2-carboxylic acid]",4.48 µM
11,CCCCC1(C)OC(=O)C(=Cc2ccc(-c3ccc(Cl)c(C(=O)O)c3)o2)C(=O)O1 (configuration not stated),15.1 µM
12,"COc1ccc(CN=Nc2nc(O)c(CC(=O)O)s2)cc1OCc1ccc(Cl)cc1Cl [[2-({3-[(2,4-dichlorobenzyl)oxy]-4-methoxybenzylidene}hydrazono)-4-oxo-1,3-thiazolidin-5-yl]acetic acid]",4.48 µM
13,CCOC(=O)C1C(COC(=O)C=Cc2ccco2)=NC(=O)NC1C (configuration not stated),4.25 µM
14,CSc1nnc(C)c(CC=Nc2ccc(F)cc2F)n1 [MLS000707071],13.3 µM
15,"Cc1ccccc1NC(=O)CN1C(=O)/C(=N\NC(=O)c2ccccc2O)c2ccccc21 [2-{3-[(2-Hydroxy-benzoyl)-hydrazono]-2-oxo-2,3-dihydro-indol-1-yl}-N-o-tolyl-acetamide]",1.23 µM
16,COC(=O)C1C(COc2ccccc2)=NC(=O)NC1c1ccc2ccccc2c1 (configuration not stated),13.8 µM

row,SMILES,IC50
1,"CC1(CC(=O)NN=CC2C=C([N+](=O)[O-])C(=O)C=C2O)OCCO1 (configuration not stated) [N'-[(E)-(2-hydroxy-5-nitro-4-oxocyclohexa-2,5-dien-1-ylidene)methyl]-2-(2-methyl-1,3-dioxolan-2-yl)acetohydrazide]",4.41 µM
2,O=C1Nc2ccc([N+](=O)[O-])cc2/C1=N/NC(=O)c1cc(-c2ccccc2Cl)nc2ccccc12 [2-(2-chlorophenyl)-N'-(2-keto-5-nitro-indol-3-yl)cinchoninohydrazide],0.711 µM
3,CCOc1ccc(CN=Nc2ccc(S(=O)(=O)Nc3ccccc3C(=O)O)cc2[N+](=O)[O-])cc1OC [SMR001308940],3.51 µM
4,"O=C(O)c1cccc(-n2c(O)c3c(c2O)CC(Cl)=CC3)c1 [3-[5-chloranyl-1,3-bis(oxidanylidene)-3a,4,7,7a-tetrahydroisoindol-2-yl]benzoic acid]",10.3 µM
5,O=C(NN=C/C=C\c1ccco1)c1ccccn1 [Pyridine-2-carboxylic acid [(Z)-3-furan-2-yl-prop-2-en-(E)-ylidene]-hydrazide],14.5 µM
6,O=C(NN=C/C=C/c1ccccc1)c1cc2c(ccc3ccccc32)o1 [N-[[(E)-3-phenylprop-2-enylidene]amino]-2-benzo[e]benzofurancarboxamide],1.72 µM
7,CCN(CC)P(=O)(NC(=O)C(Cl)(Cl)Cl)N(CC)CC [MLS000564159],2.49 µM
8,Cc1ccc(OCC(=O)N/N=C/c2ccc(O)c([N+](=O)[O-])c2)c([N+](=O)[O-])c1 [SMR000312577],8.42 µM
9,COc1ccc(CN=Nc2ncc(Br)cn2)c(OC)c1 [MLS000856301],19.6 µM
10,CCOc1ccccc1/N=C1\SCCCN1C,23 µM
11,"CCOc1ccccc1C(=O)c1cc(O)c2ccccc2c1O [2-[(2-ethoxyphenyl)-oxidanyl-methyl]naphthalene-1,4-dione]",4.16 µM
12,O=C(CSc1nc(O)cc(=O)[nH]1)Nc1ccccc1[N+](=O)[O-] [SMR000620617],4.04 µM
13,"CCOc1cc(CN=Nc2nc(O)c(CC(=O)O)s2)ccc1OCc1ccc(Cl)cc1 [2-[2-[2-[[4-[(4-chlorophenyl)methoxy]-3-ethoxy-phenyl]methylidene]hydrazinyl]-4-oxidanylidene-1,3-thiazol-5-yl]ethanoic acid]",7.12 µM
14,COc1cccc(N/C(C)=[N+](\C)CCNS(=O)(=O)c2ccc(Cl)cc2)c1 [SMR000672481],3.46 µM
15,Cc1nnc(NS(=O)(=O)c2ccc(/N=N/c3ccc(N)nc3N)cc2)s1,11.5 µM
16,O=C(O)Cc1sc(N=NCc2ccccc2)nc1-c1ccccc1,5.14 µM
